Assay results reported in patent US20250313574A1, “SIALIC ACID DERIVATIVES AND METHODS OF USING SAME” (EISAI R&D MANAGEMENT CO., LTD., priority 2022, published 2025).

Experiments:
[1] = target: Recombinant human CD33 protein (Homo sapiens (Human), UniProt P20138); assay: CD33 competitive binding assay for HTS drug screen (fluorescent multivalent sialic acid probe)
Procedure, shortened: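 Inhibition was read as reduced retention of a fluorescent multivalent sialic acid complex (final 5 μM neutravidin, 15 μM A-375, 5 μM biotin-4-FITC) on plate-immobilized human CD33. Compound was added first, the probe followed for 30 min at room temperature in PBS with 0.2% Tween-20 and 0.5% BSA, and FITC was measured after a wash.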

[2] = target: Recombinant Human Siglec-3/CD33 protein (His-CD33) (Homo sapiens (Human), UniProt P20138); assay: Differential scanning fluorimetry (DSF) thermal shift assay; type: binding; conditions: thermal melt shift of 0.5 μM CD33 protein with 50 μM compound
Description: In the DSF assay, as the temperature increases, the protein gets gradually unfolded, exposing hydrophobic regions in which a fluorescent dye binds causing the fluorescence signal to increase. The midpoint of the unfolding transitions is called the thermal melt (Tm) or denaturation temperature and the Tm was defined as the peak apex in the derivative curve. Here, the Tm temperature of CD33 in the presence and absence of A-001 at a concentration of 50 μM was examined.
Recombinant Human Siglec-3/CD33 protein was purchased from Acros (catalog no. CD3-H5226) and reagents used in this study are shown in the Table 1 below.
Lyophilized CD33 protein was received in 1 mg aliquots from Acros. The protein was diluted with 2.5 mL of sterile water to a concentration of 400 μg/mL (14.5 μM), aliquoted into 138 μL aliquots and stored as at −20° C. On the day of analysis, the protein was thawed and […] solution was diluted to […] using buffer containing 133 mM NaCl, 133 mM phosphate buffered solution and 13.9× Sypro Orange dye in water in a quantity to cover the amount of samples tested on the day of the analysis.
200 μM stock solutions of A-001 containing 0.2% DMSO in water was supplied by compound management in a 384-well plate format.
Sample matrix were prepared by adding 7.5 μL of the protein buffer stock solution followed by addition of 2.5 μL of the 200 μM compound solutions in 384-well PCR plates to give a final volume of 10 μL per well consisting of 0.5 μM CD33 protein, 100 mM phosphate buffered solution pH 7.4, 100 mM NaCl, 10× SYPRO orange dye and 50 μM compound concentration (final DMSO concentration ˜0.2%). Using the Applied Biosystems® Protein Thermal Shift software (algorithm version 1.3.), the denaturation temperature or thermal melt (Tm) of the unbound and ligand bound CD33 protein was automatically assigned and the difference in thermal melt (ΔTm D) was calculated using the derivative curve by the Protein Thermal Shift software.
Recombinant human CD33 protein (0.5 μM) was incubated under buffered conditions in the presence of SYPRO orange dye, a temperature gradient was applied and a thermogram was produced by monitoring the fluorescence. The Tm was defined as the peak apex in the derivative curve in the study. […] Addition of […] of A-001 (Blue lines) to the CD33 protein induced significant Tm increases (ΔTm D) of 12.2±0.7° C.

Recombinant human CD33 protein, sequence (P20138 18-259): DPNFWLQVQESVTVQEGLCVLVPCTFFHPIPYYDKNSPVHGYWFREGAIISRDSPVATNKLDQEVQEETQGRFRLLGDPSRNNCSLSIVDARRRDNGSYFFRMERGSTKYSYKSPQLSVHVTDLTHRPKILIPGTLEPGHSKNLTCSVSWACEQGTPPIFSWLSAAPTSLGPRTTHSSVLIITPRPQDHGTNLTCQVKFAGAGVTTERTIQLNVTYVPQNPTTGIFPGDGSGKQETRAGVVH
Recombinant Human Siglec-3/CD33 protein (His-CD33), sequence (P20138 18-259): as above

Compound | EC50 [1] [nM] | DSF (dTmD) [2]
CC(=O)N[C@H]1[C@H]([C@H](O)[C@H](O)CNC(=O)c2cc(C)c(O)c(C)c2)O[C@@](CCN2CCOC[C@@]23CCN(C(=O)Nc2ccc(C)cc2)C3)(C(=O)O)C[C@@H]1O [A-053] | 147 | 9.2
CC(=O)N[C@H]1[C@H]([C@H](O)[C@H](O)CNC(=O)c2cc(C)c(O)c(C)c2)O[C@@](CCN2CCOC[C@@]23CCN(C(=O)NC2(c4ccc(F)cc4)CCCC2)C3)(C(=O)O)C[C@@H]1O [A-057] | 265 | 9.7
CC(=O)N[C@H]1[C@H]([C@H](O)[C@H](O)CNC(=O)c2cc(C)c(O)c(C)c2)O[C@@](CCN2CCOC[C@@]23CCN(C(=S)NC2CC2)C3)(C(=O)O)C[C@@H]1O [A-058] | 1380 | 5.0
CC(=O)N[C@H]1[C@H]([C@H](O)[C@H](O)CNC(=O)c2cc(C)c(O)c(C)c2)O[C@@](CCN2CCOC[C@@]23CCN(C(=O)N(C)C(C)C)C3)(C(=O)O)C[C@@H]1O [A-061] | 235 | 7.5
CC(=O)N[C@H]1[C@H]([C@H](O)[C@H](O)CNC(=O)c2cc(C)c(O)c(C)c2)O[C@@](CCN2CCOC[C@@]23CCN(C(=O)N2CCCC2)C3)(C(=O)O)C[C@@H]1O [A-062] | 833 | 7.2
CC(=O)N[C@H]1[C@H]([C@H](O)[C@H](O)CNC(=O)c2cc(C)c(O)c(C)c2)O[C@@](CCN2CCOC[C@@]23CCN(C(=O)N(C)Cc2ccccc2)C3)(C(=O)O)C[C@@H]1O [A-063] | 323 | 6.3
CC(=O)N[C@H]1[C@H]([C@H](O)[C@H](O)CNC(=O)c2cc(C)c(O)c(C)c2)O[C@@](CCN2CCOC[C@@]23CCN(C(=O)N(C)C)C3)(C(=O)O)C[C@@H]1O [A-064] | 3500 | 3.5
CC(=O)N[C@H]1[C@H]([C@H](O)[C@H](O)CNC(=O)c2cc(C)c(O)c(C)c2)O[C@@](CCN2CCOC[C@@]23CCN(C(=O)N2CCC(F)(F)CC2)C3)(C(=O)O)C[C@@H]1O [A-065] | 739 | 6.1
CCN(CC)C(=O)N1CC[C@@]2(COCCN2CC[C@]2(C(=O)O)C[C@H](O)[C@@H](NC(C)=O)[C@H]([C@H](O)[C@H](O)CNC(=O)c3cc(C)c(O)c(C)c3)O2)C1 [A-066] | 156 | 8.4
CC(=O)N[C@H]1[C@H]([C@H](O)[C@H](O)CNC(=O)c2cc(C)c(O)c(C)c2)O[C@@](CCN2CCOC[C@@]23CCN(C(=O)C2CC4(C2)CC(F)(F)C4)C3)(C(=O)O)C[C@@H]1O [A-069] | 123 | 8.3
CC(=O)N[C@H]1[C@H]([C@H](O)[C@H](O)CNC(=O)c2cc(C)c(O)c(C)c2)O[C@@](CCN2CCOC[C@@]23CCN(C(=O)C=C(C)C)C3)(C(=O)O)C[C@@H]1O [A-078] | 115 | 9.4
CC(=O)N[C@H]1[C@H]([C@H](O)[C@H](O)CNC(=O)c2cc(C)c(O)c(C)c2)O[C@@](CCN2CCOC[C@@]23CCN(C(=O)NCc2ccccc2)C3)(C(=O)O)C[C@@H]1O [A-079] | 152 | 9.1
CC(=O)N[C@H]1[C@H]([C@H](O)[C@H](O)CNC(=O)c2cc(C)c(O)c(C)c2)O[C@@](CCN2CCOC[C@@]23CCN(C(=O)C2CC(C)(C)C2)C3)(C(=O)O)C[C@@H]1O [A-080] | 68 | 10.2
CC(=O)N[C@H]1[C@H]([C@H](O)[C@H](O)CNC(=O)c2cc(C)c(O)c(C)c2)O[C@@](CCN2CCOC[C@@]23CCN(C(=O)C2CC2)C3)(C(=O)O)C[C@@H]1O [A-096] | 454 | 7.6
CC(=O)N[C@H]1[C@H]([C@H](O)[C@H](O)CNC(=O)c2cc(C)c(O)c(C)c2)O[C@@](CCN2CCOC[C@@]23CCN(C(=O)C(C)(C)C)C3)(C(=O)O)C[C@@H]1O [A-097] | 430 | 8.25
CC(=O)N[C@H]1[C@H]([C@H](O)[C@H](O)CNC(=O)c2cc(C)c(O)c(C)c2)O[C@@](CCN2CCOC[C@@]23CCN(C(=O)C2(c4ccccc4)CC2)C3)(C(=O)O)C[C@@H]1O [A-098] | 685 | 6.9
CC(=O)N[C@H]1[C@H]([C@H](O)[C@H](O)CNC(=O)c2cc(C)c(O)c(C)c2)O[C@@](CCN2CCOC[C@@]23CCN(C(=O)c2ccc(C)cc2)C3)(C(=O)O)C[C@@H]1O [A-099] | 342 | 7.3
CC(=O)N[C@H]1[C@H]([C@H](O)[C@H](O)CNC(=O)c2cc(C)c(O)c(C)c2)O[C@@](CCN2CCOC[C@@]23CCN(C(=O)C2(C)COC2)C3)(C(=O)O)C[C@@H]1O [A-100] | 2340 | 5.6
CC(=O)N[C@H]1[C@H]([C@H](O)[C@H](O)CNC(=O)c2cc(C)c(O)c(C)c2)O[C@@](CCN2CCOC[C@@]23CCN(C(=O)c2ccccc2)C3)(C(=O)O)C[C@@H]1O [A-101] | 921 | 7.4
CC(=O)N[C@H]1[C@H]([C@H](O)[C@H](O)CNC(=O)c2cc(C)c(O)c(C)c2)O[C@@](CCN2CCOC[C@@]23CCN(C(=O)C2(C(F)(F)F)CCCCC2)C3)(C(=O)O)C[C@@H]1O [A-102] | 397 | 7.5

Stronger by EC50 [1], values ahead:

EC50 [1] [nM] | DSF (dTmD) [2] | Compound
13 | 13.2 | CC(=O)N[C@H]1[C@H]([C@H](O)[C@H](O)CNC(=O)c2cc(C)c(O)c(C)c2)O[C@@](CCN2CCOC[C@@]23CCN(C(=O)N[C@@H](C)c2ccccc2)C3)(C(=O)O)C[C@@H]1O [A-043]
19 | 11.5 | CC(=O)N[C@H]1[C@H]([C@H](O)[C@H](O)CNC(=O)c2cc(C)c(O)c(C)c2)O[C@@](CCN2CCOC[C@@]23CCN(C(=O)NC(C)C(F)(F)F)C3)(C(=O)O)C[C@@H]1O (stereo partly shown) [A-044]
19 | 12.6 | CC(=O)N[C@H]1[C@H]([C@H](O)[C@H](O)CNC(=O)c2cc(C)c(O)c(C)c2)O[C@@](CCN2CCOC[C@@]23CCN(C(=O)NC2CCCCC2)C3)(C(=O)O)C[C@@H]1O [A-045]
22 | 12.9 | CC(=O)N[C@H]1[C@H]([C@H](O)[C@H](O)CNC(=O)c2cc(C)c(O)c(C)c2)O[C@@](CCN2CCOC[C@@]23CCN(C(=O)N[C@H](C)c2ccccc2)C3)(C(=O)O)C[C@@H]1O [A-047]
24 | 12.5 | CC(=O)N[C@H]1[C@H]([C@H](O)[C@H](O)CNC(=O)c2cc(C)c(O)c(C)c2)O[C@@](CCN2CCOC[C@@]23CCN(C(=O)NC(C)C)C3)(C(=O)O)C[C@@H]1O [A-048]
41 | 13.5 | CC(=O)N[C@H]1[C@H]([C@H](O)[C@H](O)CNC(=O)c2cc(C)c(O)c(C)c2)O[C@@](CCN2CCOC[C@@]23CCN(C(=O)NC24CC5CC(CC(C5)C2)C4)C3)(C(=O)O)C[C@@H]1O [A-049]
64 | 10.8 | CC(=O)N[C@H]1[C@H]([C@H](O)[C@H](O)CNC(=O)c2cc(C)c(O)c(C)c2)O[C@@](CCN2CCOC[C@@]23CCN(C(=O)NC2CCC(F)(F)CC2)C3)(C(=O)O)C[C@@H]1O [A-051]
66 | 9.9 | CC(=O)N[C@H]1[C@H]([C@H](O)[C@H](O)CNC(=O)c2cc(C)c(O)c(C)c2)O[C@@](CCN2CCOC[C@@]23CCN(C(=S)NC2CCCCC2)C3)(C(=O)O)C[C@@H]1O [A-052]
60 | 9.3 | CC(=O)N[C@H]1[C@H]([C@H](O)[C@H](O)CNC(=O)c2cc(C)c(O)c(C)c2)O[C@@](CCN2CCOC[C@@]23CCN(C(=O)N(C)c2ccccc2)C3)(C(=O)O)C[C@@H]1O [A-059]
65 | 11.2 | CC(=O)N[C@H]1[C@H]([C@H](O)[C@H](O)CNC(=O)c2cc(C)c(O)c(C)c2)O[C@@](CCN2CCOC[C@@]23CCN(C(=O)C2CCCC2)C3)(C(=O)O)C[C@@H]1O [A-060]
31 | 12.0 | CC(=O)N[C@H]1[C@H]([C@H](O)[C@H](O)CNC(=O)c2cc(C)c(O)c(C)c2)O[C@@](CCN2CCOC[C@@]23CCN(C(=O)C2CCCCC2(F)F)C3)(C(=O)O)C[C@@H]1O (stereo partly shown) [A-070]
41 | 11.0 | CC(=O)N[C@H]1[C@H]([C@H](O)[C@H](O)CNC(=O)c2cc(C)c(O)c(C)c2)O[C@@](CCN2CCOC[C@@]23CCN(C(=O)C2(C)CCCCC2)C3)(C(=O)O)C[C@@H]1O [A-071]
